Measurements: patent EP4389117A1, “PROGESTERONE FORMULATION” (Besins Healthcare Distribution FZ-LLC, priority 2022, dated 2024)
Like-named read-outs stand apart in the source and are kept apart here.

Legend:
[1] = single 200 mg oral dose, cited from earlier work
[2] = Particle size distribution (PSD) measurement by laser light diffractometry, Malvern Mastersizer 2000; assay type: physicochemical; conditions: starting powder before wet-medium-milling
Description: In this document, any particle size characteristic of the wet-media-milled progesterone particles is determined using laser light diffractometry and is based on a volume weighted particle size distribution, unless specifically indicated otherwise. […] As will be understood by those skilled in the art, the term "Dv50" as used herein refers to the point in the size distribution, up to and including which, 50% of the total volume of material in the sample is 'contained'. […] Particle size distribution ('PSD') characteristics are determined using a Malvern® Mastersizer 2000 apparatus equipped with a Hydro 2000 SM wet sample dispersion unit, operated with the settings summarized in table 1. Table 1 - PSD measurement settings [table]

SMILES: CC(=O)[C@H]1CC[C@H]2[C@@H]3CCC4=CC(=O)CC[C@]4(C)[C@H]3CC[C@]12C [progesterone, pregn-4-ene-3,20-dione]
- peak levels of progesterone compared to plain milled progesterone ([1]; as a consequence of micronization): 1.4 fold
- peak levels of progesterone compared to plain milled progesterone ([1]; as a consequence of the suspension in oil): 1.2 fold
- peak levels of progesterone compared to plain milled progesterone ([1]; combination of micronization and the suspension in oil): 3.2 fold
- Dv10 [2]: 4.7
- Dv50 [2]: 38.4
- Dv90 [2]: 74.6
